# Assay results taken from patent publication US7713994B2 (Wyeth LLC, priority 2005, dated 2010).
# Target: T1, cyclin D1/cdk 4 enzyme (Homo sapiens, UniProt P11802)
# T1 construct: made in house; host or cells: Sf9 insect cells, recombinant baculovirus
# Experiment: CDK4 ELISA kinase assay (phospho-Rb ser 795 detection)
# Assay type: biochemical
# Settings: In Vitro Enzyme Assay, cyclin D1/cdk 4, read-out: CDK4 IC50
# Outline: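 Sf9-derived cyclin/CDK, 200 μM ATP, immobilized GST-Rb; 30° C/1 h. Detection: phospho-Ser795 Ab, HRP, TMB, OD450.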
# T1 sequence (P11802 whole entry, species assumed): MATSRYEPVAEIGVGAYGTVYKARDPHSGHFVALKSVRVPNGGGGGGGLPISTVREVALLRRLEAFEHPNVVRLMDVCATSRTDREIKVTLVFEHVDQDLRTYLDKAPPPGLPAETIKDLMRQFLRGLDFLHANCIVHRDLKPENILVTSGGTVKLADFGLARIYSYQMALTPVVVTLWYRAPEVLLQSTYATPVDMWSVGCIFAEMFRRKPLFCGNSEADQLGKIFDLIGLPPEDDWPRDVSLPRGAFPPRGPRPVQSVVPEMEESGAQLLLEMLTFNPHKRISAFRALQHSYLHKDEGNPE
# T1 sequence (P24385 whole entry partner, species assumed): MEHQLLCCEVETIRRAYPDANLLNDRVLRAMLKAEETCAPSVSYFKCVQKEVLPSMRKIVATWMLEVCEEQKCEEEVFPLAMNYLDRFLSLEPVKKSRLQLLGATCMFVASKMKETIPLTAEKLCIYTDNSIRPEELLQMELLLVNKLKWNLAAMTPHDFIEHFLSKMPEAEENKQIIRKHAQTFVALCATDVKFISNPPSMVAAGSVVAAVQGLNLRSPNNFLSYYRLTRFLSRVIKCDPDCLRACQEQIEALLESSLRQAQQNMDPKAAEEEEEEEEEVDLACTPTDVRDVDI
row,Structure (SMILES),IC50 [µM]
1,"CN1CCN(c2ccc(NC=C3C(=O)NC(=O)c4ccc(-c5cccc(C#N)c5)cc43)cc2)CC1 [Example 695, 3-(4-{[4-(4-Methyl-piperazin-1-yl)-phenylamino]-methylene}-1,3-dioxo-1,2,3,4-tetrahydro-isoquinolin-6-yl)-benzonitrile]",14.3
2,"CN1CCN(c2ccc(NC=C3C(=O)NC(=O)c4ccc(-c5ccc(-c6ccccc6)cc5)cc43)cc2)CC1 [Example 696, 6-Biphenyl-4-yl-4-{[4-(4-methyl-piperazin-1-yl)-phenylamino]-methylene}-4H-isoquinoline-1,3-dione]",27.3
3,"CN1CCN(c2ccc(NC=C3C(=O)NC(=O)c4ccc(-c5cccc(-c6ccccc6)c5)cc43)cc2)CC1 [Example 697, 6-Biphenyl-3-yl-4-{[4-(4-methyl-piperazin-1-yl)-phenylamino]-methylene}-4H-isoquinoline-1,3-dione]",48.6
4,"CSc1ccc(-c2ccc3c(c2)C(=CNc2ccc(N4CCN(C)CC4)cc2)C(=O)NC3=O)cc1 [Example 700, 4-{[4-(4-Methyl-piperazin-1-yl)-phenylamino]-methylene}-6-(4-methylsulfanyl-phenyl)-4H-isoquinoline-1,3-dione]",45
5,"COc1cccc(-c2ccc3c(c2)C(=CNc2ccc(CC#N)cc2)C(=O)NC3=O)c1 [Example 702, (4-{[6-(3-Methoxy-phenyl)-1,3-dioxo-2,3-dihydro-1H-isoquinolin-4-ylidenemethyl]-amino}-phenyl)-acetonitrile]",20.9
6,"COc1ccccc1-c1ccc2c(c1)C(=CNc1ccc(CC#N)cc1)C(=O)NC2=O [Example 703, (4-{[6-(2-Methoxy-phenyl)-1,3-dioxo-2,3-dihydro-1H-isoquinolin-4-ylidenemethyl]-amino}-phenyl)-acetonitrile]",18.5
7,"N#CCc1ccc(NC=C2C(=O)NC(=O)c3ccc(-c4ccc(C(F)(F)F)cc4)cc32)cc1 [Example 709, (4-{[1,3-Dioxo-6-(4-trifluoromethyl-phenyl)-2,3-dihydro-1H-isoquinolin-4-ylidenemethyl]-amino}-phenyl)-acetonitrile]",38.6
8,"CC(=O)c1ccc(-c2ccc3c(c2)C(=CNc2ccc(CC#N)cc2)C(=O)NC3=O)cc1 [Example 710, (4-{[6-(4-Acetyl-phenyl)-1,3-dioxo-2,3-dihydro-1H-isoquinolin-4-ylidenemethyl]-amino}-phenyl)-acetonitrile]",28
9,"N#CCc1ccc(NC=C2C(=O)NC(=O)c3ccc(-c4cccc(C#N)c4)cc32)cc1 [Example 719, 3-{4-[(4-Cyanomethyl-phenylamino)-methylene]-1,3-dioxo-1,2,3,4-tetrahydro-isoquinolin-6-yl}-benzonitrile]",27.5
10,"N#CCc1ccc(NC=C2C(=O)NC(=O)c3ccc(-c4ccc(-c5ccccc5)cc4)cc32)cc1 [Example 720, {4-[(6-Biphenyl-4-yl-1,3-dioxo-2,3-dihydro-1H-isoquinolin-4-ylidenemethyl)-amino]-phenyl}-acetonitrile]",21.7
11,"N#CCc1ccc(NC=C2C(=O)NC(=O)c3ccc(-c4cccc(-c5ccccc5)c4)cc32)cc1 [Example 721, {4-[(6-Biphenyl-3-yl-1,3-dioxo-2,3-dihydro-1H-isoquinolin-4-ylidenemethyl)-amino]-phenyl}-acetonitrile]",25.9
12,"CC(C)c1ccc(-c2ccc3c(c2)C(=CNc2ccc(CC#N)cc2)C(=O)NC3=O)cc1 [Example 722, (4-{[6-(4-Isopropyl-phenyl)-1,3-dioxo-2,3-dihydro-1H-isoquinolin-4-ylidenemethyl]-amino}-phenyl)-acetonitrile]",25.3
13,"CN1CCN(c2ccc(NC=C3C(=O)NC(=O)c4ccc(C=Cc5ccc(Cl)cc5)cc43)cc2)CC1 [Example 726, 6-[2-(4-Chloro-phenyl)-vinyl]-4-{[4-(4-methyl-piperazin-1-yl)-phenylamino]-methylene}-4H-isoquinoline-1,3-dione]",16.9
14,"CN1CCN(c2ccc(NC=C3C(=O)NC(=O)c4ccc(C=Cc5ccc(C(=O)O)cc5)cc43)cc2)CC1 [Example 727, 4-[2-(4-{[4-(4-Methyl-piperazin-1-yl)-phenylamino]-methylene}-1,3-dioxo-1,2,3,4-tetrahydro-isoquinolin-6-yl)-vinyl]-benzoic acid]",20.4
15,"COc1ccc(C=Cc2ccc3c(c2)C(=CNc2ccc(N4CCN(C)CC4)cc2)C(=O)NC3=O)cc1 [Example 732, 6-[2-(4-Methoxy-phenyl)-vinyl]-4-{[4-(4-methyl-piperazin-1-yl)-phenylamino]-methylene}-4H-isoquinoline-1,3-dione]",25.8
16,"NS(=O)(=O)c1ccc(CNC=C2C(=O)NC(=O)c3ccc(-c4cccc(C(=O)O)c4)cc32)cc1 [Example 742, 3-{1,3-Dioxo-4-[(4-sulfamoyl-benzylamino)-methylene]-1,2,3,4-tetrahydro-isoquinolin-6-yl}-benzoic acid]",13.8
17,"NS(=O)(=O)c1ccc(CNC=C2C(=O)NC(=O)c3ccc(-c4cccc(C(F)(F)F)c4)cc32)cc1 [Example 744, 4-({[1,3-Dioxo-6-(3-trifluoromethyl-phenyl)-2,3-dihydro-1H-isoquinolin-4-ylidenemethyl]-amino}-methyl)-benzenesulfonamide]",48.6
18,"NS(=O)(=O)c1ccc(CNC=C2C(=O)NC(=O)c3ccc(-c4ccccc4C(F)(F)F)cc32)cc1 [Example 745, 4-({[1,3-Dioxo-6-(2-trifluoromethyl-phenyl)-2,3-dihydro-1H-isoquinolin-4-ylidenemethyl]-amino}-methyl)-benzenesulfonamide]",19.9
19,"CC(=O)c1cccc(-c2ccc3c(c2)C(=CNCc2ccc(S(N)(=O)=O)cc2)C(=O)NC3=O)c1 [Example 747, 4-({[6-(3-Acetyl-phenyl)-1,3-dioxo-2,3-dihydro-1H-isoquinolin-4-ylidenemethyl]-amino}-methyl)-benzenesulfonamide]",14.5
20,"CC(=O)c1ccccc1-c1ccc2c(c1)C(=CNCc1ccc(S(N)(=O)=O)cc1)C(=O)NC2=O [Example 748, 4-({[6-(2-Acetyl-phenyl)-1,3-dioxo-2,3-dihydro-1H-isoquinolin-4-ylidenemethyl]-amino}-methyl)-benzenesulfonamide]",46.2

# These reach a lower IC50. Values come first.
row,IC50 [µM],Structure (SMILES)
1,12.6,"N#CCc1ccc(NC=C2C(=O)NC(=O)c3ccc(-c4cccc(F)c4)cc32)cc1 [Example 705, (4-{[6-(3-Fluoro-phenyl)-1,3-dioxo-2,3-dihydro-1H-isoquinolin-4-ylidenemethyl]-amino}-phenyl)-acetonitrile]"
2,3.8,"N#CCc1ccc(NC=C2C(=O)NC(=O)c3ccc(-c4ccc(C(=O)O)cc4)cc32)cc1 [Example 707, 4-{4-[(4-Cyanomethyl-phenylamino)-methylene]-1,3-dioxo-1,2,3,4-tetrahydro-isoquinolin-6-yl}-benzoic acid]"
3,10,"N#CCc1ccc(NC=C2C(=O)NC(=O)c3ccc(-c4cccc(C(=O)O)c4)cc32)cc1 [Example 708, 3-{4-[(4-Cyanomethyl-phenylamino)-methylene]-1,3-dioxo-1,2,3,4-tetrahydro-isoquinolin-6-yl}-benzoic acid]"
4,7.9,"N#CCc1ccc(NC=C2C(=O)NC(=O)c3ccc(-c4ccc(Cl)cc4)cc32)cc1 [Example 712, (4-{[6-(4-Chloro-phenyl)-1,3-dioxo-2,3-dihydro-1H-isoquinolin-4-ylidenemethyl]-amino}-phenyl)-acetonitrile]"
5,12.8,"N#CCc1ccc(NC=C2C(=O)NC(=O)c3ccc(-c4cccc(Cl)c4)cc32)cc1 [Example 713, (4-{[6-(3-Chloro-phenyl)-1,3-dioxo-2,3-dihydro-1H-isoquinolin-4-ylidenemethyl]-amino}-phenyl)-acetonitrile]"
6,13.3,"Cc1ccccc1-c1ccc2c(c1)C(=CNc1ccc(CC#N)cc1)C(=O)NC2=O [Example 717, {4-[(1,3-Dioxo-6-o-tolyl-2,3-dihydro-1H-isoquinolin-4-ylidenemethyl)-amino]-phenyl}-acetonitrile]"
7,8.2,"N#CCc1ccc(NC=C2C(=O)NC(=O)c3ccc(-c4ccc(C#N)cc4)cc32)cc1 [Example 718, 4-{4-[(4-Cyanomethyl-phenylamino)-methylene]-1,3-dioxo-1,2,3,4-tetrahydro-isoquinolin-6-yl}-benzonitrile]"
8,12.2,"CSc1ccc(-c2ccc3c(c2)C(=CNc2ccc(CC#N)cc2)C(=O)NC3=O)cc1 [Example 723, (4-{[6-(4-Methylsulfanyl-phenyl)-1,3-dioxo-2,3-dihydro-1H-isoquinolin-4-ylidenemethyl]-amino}-phenyl)-acetonitrile]"
9,0.01,"COc1ccc(CNC=C2C(=O)NC(=O)c3ccc(C=Cn4ccnc4)cc32)cc1O [Example 733, 4-[(3-Hydroxy-4-methoxy-benzylamino)-methylene]-6-(2-imidazol-1-yl-vinyl)-4H-isoquinoline-1,3-dione]"
10,2.3,"NS(=O)(=O)c1ccc(CNC=C2C(=O)NC(=O)c3ccc(-c4ccc(C(=O)O)cc4)cc32)cc1 [Example 741, 4-{1,3-Dioxo-4-[(4-sulfamoyl-benzylamino)-methylene]-1,2,3,4-tetrahydro-isoquinolin-6-yl}-benzoic acid]"
11,11.3,"NS(=O)(=O)c1ccc(CNC=C2C(=O)NC(=O)c3ccc(-c4ccc(C(F)(F)F)cc4)cc32)cc1 [Example 743, 4-({[1,3-Dioxo-6-(4-trifluoromethyl-phenyl)-2,3-dihydro-1H-isoquinolin-4-ylidenemethyl]-amino}-methyl)-benzenesulfonamide]"
12,0.5,"CC(=O)c1ccc(-c2ccc3c(c2)C(=CNCc2ccc(S(N)(=O)=O)cc2)C(=O)NC3=O)cc1 [Example 746, 4-({[6-(4-Acetyl-phenyl)-1,3-dioxo-2,3-dihydro-1H-isoquinolin-4-ylidenemethyl]-amino}-methyl)-benzenesulfonamide]"
